In brackets after ≈: the same amount, converted by molar mass. Activity calls are given as the source filed them. No cut-off for these calls is given here.
How the values were obtained:
Cell membrane [1] = assay: Induction of cytoplasmic membrane depolarization in methicilin-resistant Staphylococcus aureus 21455 at 16 times MIC by DiSC3(5) dye-based fluorescence assay
[2] = Hemolytic activity in rabbit erythrocytes assessed as hemolysis at 256 microg/ml relative to control; assay type: toxicity, cell-based, Oryctolagus cuniculus, Erythrocyte; details: at 256 µg/mL, read-out: Activity
Cell membrane [3] = assay: Induction of cell membrane […] in methicilin-resistant Staphylococcus aureus 21455 assessed as increase in fluorescence intensity at 16 times MIC by SYTOX green dye based fluorescence analysis; assay type: cell membranes
[4] = Hemolytic activity in rabbit erythrocytes assessed as hemolysis at 64 microg/ml relative to control; assay type: toxicity, cell-based, Oryctolagus cuniculus, Erythrocyte; details: at 64 µg/mL, read-out: Activity
Staphylococcus aureus [5] = assay: Bactericidal activity against methicilin-resistant Staphylococcus aureus 21455 assessed as reduction in bacterial viability at 2 times MIC observed after 4 hrs by time-kill kinetic assay relative to control; assay type: functional
Staphylococcus aureus [6] = assay: Antibacterial activity against methicilin-resistant Staphylococcus aureus 42412 assessed as inhibition of bacterial growth; assay type: functional
[7] = system: Staphylococcus saprophyticus; assay: Antibacterial activity against Staphylococcus saprophyticus ATCC 49453 assessed as inhibition of bacterial growth; assay type: functional
Staphylococcus aureus [8] = assay: Bactericidal activity against methicilin-resistant Staphylococcus aureus 21455 assessed as inhibition of bacterial growth by time-kill kinetic assay; assay type: functional, organism-based
Cell membrane [9] = assay: Induction of cytoplasmic membrane depolarization in methicilin-resistant Staphylococcus aureus 21455 at 8 times MIC by DiSC3(5) dye-based fluorescence assay
Enterococcus faecium [10] = assay: Antibacterial activity against Vancomycin-resistant Enterococcus faecium 1014 assessed as inhibition of bacterial growth; assay type: functional
Staphylococcus aureus [11] = assay: Antibacterial activity against methicilin-resistant Staphylococcus aureus 1003 assessed as inhibition of bacterial growth; assay type: functional
[12] = system: Staphylococcus saprophyticus; assay: Antibacterial activity against Staphylococcus saprophyticus ATCC 15305 assessed as inhibition of bacterial growth; assay type: functional
Staphylococcus aureus [13] = assay: Antibacterial activity against methicilin-resistant Staphylococcus aureus ATCC 700699 assessed as inhibition of bacterial growth; assay type: functional
Staphylococcus aureus [14] = assay: Antibacterial activity against methicilin-resistant Staphylococcus aureus 21455 assessed as inhibition of bacterial growth; assay type: functional
Bacillus subtilis = assay: Antibacterial activity against Bacillus subtilis ATCC 6633 assessed as inhibition of bacterial growth; assay type: functional
Enterococcus faecium [15] = assay: Antibacterial activity against Vancomycin-resistant Enterococcus […] ATCC 700802 assessed as inhibition of bacterial growth; assay type: functional
[16] = system: Staphylococcus epidermidis; assay: Antibacterial activity against Staphylococcus epidermidis 12228 assessed as inhibition of bacterial growth; assay type: functional
[17] = system: Staphylococcus saprophyticus; assay: Antibacterial activity against Staphylococcus saprophyticus ATCC 49907 assessed as inhibition of bacterial growth; assay type: functional
Staphylococcus aureus [18] = assay: Bactericidal activity against methicilin-resistant Staphylococcus aureus 21455 assessed as reduction in bacterial colony forming unit at 16 times MIC observed after 2 hrs by time-kill kinetic assay; assay type: functional
Staphylococcus aureus [19] = assay: Antibacterial activity against Staphylococcus aureus 4299 assessed as inhibition of bacterial growth; assay type: functional
Enterococcus faecium [20] = assay: Antibacterial activity against Vancomycin-resistant Enterococcus […] ATCC 29212 assessed as inhibition of bacterial growth; assay type: functional; details: Enterococcus faecalis
Bacillus cereus = assay: Antibacterial activity against Bacillus cereus ATCC 11788 assessed as inhibition of bacterial growth; assay type: functional
[21] = system: Staphylococcus saprophyticus; assay: Antibacterial activity against Staphylococcus saprophyticus ATCC BAA 750 assessed as inhibition of bacterial growth; assay type: functional
Cell membrane [22] = assay: Induction of cell membrane […] in methicilin-resistant Staphylococcus aureus 21455 assessed as increase in fluorescence intensity at 8 times MIC by SYTOX green dye based fluorescence analysis; assay type: cell membranes
Staphylococcus aureus [23] = assay: Antibacterial activity against Staphylococcus aureus 29213 assessed as inhibition of bacterial growth; assay type: functional
Staphylococcus aureus [24] = assay: Antibacterial activity against Staphylococcus aureus 15981 assessed as inhibition of biofilm formation at 10 ug/ml incubated for 5 hrs by confocal microscopic analysis; assay type: functional, organism-based; details: dose 10.0 µg/ml
[25] = system: Staphylococcus epidermidis; assay: Antibacterial activity against Staphylococcus epidermidis 1457 assessed as inhibition of biofilm formation at 10 ug/ml incubated for 5 hrs by confocal microscopic analysis; assay type: functional, organism-based; details: dose 10.0 µg/ml

SMILES	MIC (Staphylococcus aureus [6]) [µg/mL]	MIC [7] [µg/mL]	MIC (Enterococcus faecium [10]) [µg/mL]	MIC (Staphylococcus aureus [11]) [µg/mL]	MIC [12] [µg/mL]	MIC (Staphylococcus aureus [13]) [µg/mL]	MIC (Staphylococcus aureus [14]) [µg/mL]	MIC (Bacillus subtilis) [µg/mL]	MIC (Enterococcus faecium [15]) [µg/mL]	MIC [16] [µg/mL]	MIC [17] [µg/mL]	MIC (Staphylococcus aureus [19]) [µg/mL]	MIC (Enterococcus faecium [20]) [µg/mL]	MIC (Bacillus cereus) [µg/mL]	MIC [21] [µg/mL]	MIC (Staphylococcus aureus [23]) [µg/mL]	also measured
CC[C@H](C)[C@H](NC(=O)[C@@H](Cc1ccccc1)NC)C(=O)N[C@@H](CCCNC(=N)N)C(=O)N[C@H](CCCNC(=N)N)C(=O)N[C@@H](C(=O)N[C@H](C(=O)N[C@@H](CO)C(=O)N[C@H]1C(=O)N[C@@H](CCCNC(=N)N)C(=O)N[C@@H](C2CCCCC2)C(=O)N[C@@H]([C@@H](C)CC)C(=O)O[C@H]1C)[C@@H](C)CC)[C@@H](C)CC	1 (≈ 0.709 µM)	0.063 (≈ 0.0447 µM)	2 (≈ 1.42 µM)	1 (≈ 0.709 µM)	< 0.063	1 (≈ 0.709 µM)	2 (≈ 1.42 µM)	0.063 (≈ 0.0447 µM)	4 (≈ 2.84 µM)	0.063 (≈ 0.0447 µM)	0.063 (≈ 0.0447 µM)	1 (≈ 0.709 µM)	2 (≈ 1.42 µM)	0.5 (≈ 0.355 µM)	< 0.063	0.5 (≈ 0.355 µM)	Activity (Cell membrane [1]): Active; hemolysis at 256 microg/ml [2]: 25%; Activity (Cell membrane [3]): 70.2%; hemolysis at 64 microg/ml [4]: 5.4%; Activity (Staphylococcus aureus [5]): >=99.9%; Activity (Staphylococcus aureus [8]): Dose-Dependent Effect; Activity (Cell membrane [9]): Active; Activity (Staphylococcus aureus [18]): >=3 log10CFU; Activity (Cell membrane [22]): 65.5%
CN[C@H](CC(C)C)C(=O)N[C@H]1C(=O)N[C@@H](CC(N)=O)C(=O)N[C@H]2C(=O)N[C@H]3C(=O)N[C@H](C(=O)N[C@H](C(=O)O)c4cc(O)cc(O)c4-c4cc3ccc4O)[C@H](O)c3ccc(c(Cl)c3)Oc3cc2cc(c3O[C@@H]2O[C@H](CO)[C@@H](O)[C@H](O)[C@H]2O[C@H]2C[C@](C)(N)[C@H](O)[C@H](C)O2)Oc2ccc(cc2Cl)[C@H]1O																	Activity (Staphylococcus aureus [24]): Active; Activity [25]: Active
CCC[C@@H]1NC(=O)[C@H](C)NC(=O)[C@H](NC(=O)[C@H](CO)NC(=O)[C@@H](NC(=O)[C@H](NC(=O)[C@@H](CCC(N)=O)NC(=O)[C@H](CO)NC(=O)[C@@H](NC(=O)[C@@H](Cc2ccccc2)NC)[C@@H](C)CC)[C@@H](C)CC)[C@@H](C)CC)[C@H](C)OC(=O)[C@H]([C@@H](C)CC)NC1=O	0.063 (≈ 0.0531 µM)	0.063 (≈ 0.0531 µM)	1 (≈ 0.842 µM)	0.25 (≈ 0.211 µM)	0.063 (≈ 0.0531 µM)	0.5 (≈ 0.421 µM)	0.125 (≈ 0.105 µM)	0.063 (≈ 0.0531 µM)	1 (≈ 0.842 µM)	0.125 (≈ 0.105 µM)	0.063 (≈ 0.0531 µM)	0.063 (≈ 0.0531 µM)	1 (≈ 0.842 µM)	0.063 (≈ 0.0531 µM)	0.063 (≈ 0.0531 µM)	0.125 (≈ 0.105 µM)	
CCC[C@@H]1NC(=O)[C@H](CCCNC(=N)N)NC(=O)[C@H](NC(=O)[C@H](CO)NC(=O)[C@@H](NC(=O)[C@H](NC(=O)[C@@H](CCCNC(=N)N)NC(=O)[C@H](CO)NC(=O)[C@@H](NC(=O)[C@@H](Cc2ccccc2)NC)[C@@H](C)CC)[C@@H](C)CC)[C@@H](C)CC)[C@H](C)OC(=O)[C@H]([C@@H](C)CC)NC1=O	0.125 (≈ 0.0961 µM)	0.063 (≈ 0.0484 µM)	2 (≈ 1.54 µM)	1 (≈ 0.769 µM)	0.063 (≈ 0.0484 µM)	0.5 (≈ 0.384 µM)	0.5 (≈ 0.384 µM)	0.5 (≈ 0.384 µM)	1 (≈ 0.769 µM)	0.063 (≈ 0.0484 µM)	0.063 (≈ 0.0484 µM)	0.063 (≈ 0.0484 µM)	2 (≈ 1.54 µM)	1 (≈ 0.769 µM)	0.063 (≈ 0.0484 µM)	0.25 (≈ 0.192 µM)	
CCCCCCCCCC(=O)N[C@@H](Cc1c[nH]c2ccccc12)C(=O)N[C@H](CC(N)=O)C(=O)N[C@@H](CC(=O)O)C(=O)N[C@@H]1C(=O)NCC(=O)N[C@@H](CCCN)C(=O)N[C@@H](CC(=O)O)C(=O)N[C@H](C)C(=O)N[C@@H](CC(=O)O)C(=O)NCC(=O)N[C@H](CO)C(=O)N[C@@H]([C@H](C)CC(=O)O)C(=O)N[C@@H](CC(=O)c2ccccc2N)C(=O)O[C@@H]1C	1 (≈ 0.617 µM)	0.125 (≈ 0.0771 µM)	2 (≈ 1.23 µM)	2 (≈ 1.23 µM)	0.125 (≈ 0.0771 µM)	2 (≈ 1.23 µM)	0.5 (≈ 0.309 µM)	0.125 (≈ 0.0771 µM)	1 (≈ 0.617 µM)	0.125 (≈ 0.0771 µM)	0.125 (≈ 0.0771 µM)	0.25 (≈ 0.154 µM)	1 (≈ 0.617 µM)	0.125 (≈ 0.0771 µM)	0.125 (≈ 0.0771 µM)	0.25 (≈ 0.154 µM)	
